The record followed here is US6180385A (priority 1996, dated 2001).

This data set concerns the target Lb proteinase (Foot-and-mouth disease virus serotype O, UniProt P03305).

Chain of Lb proteinase (P03305 29-201 limits assumed): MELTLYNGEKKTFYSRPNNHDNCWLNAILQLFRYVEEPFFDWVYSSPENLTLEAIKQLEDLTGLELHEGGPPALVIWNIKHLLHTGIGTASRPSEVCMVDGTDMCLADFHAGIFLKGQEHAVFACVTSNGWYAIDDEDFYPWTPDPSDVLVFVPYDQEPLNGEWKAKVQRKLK

Turning to AKVQRKLKGAGQSSPA [LVP4-1], the “FMDV Lb cleavage site on the peptide (* indicates cleavage site)” value is listed as “K*G”, the “cleavage of peptide in the absence of SDS (controls)” value was “complete cleavage” and the “peptide cleaved by Lb (qualitative)” value is on record as “cleaved”. Besides, under “lb proteinase, 4 min, 100 µM, pH 8”, the “cleavage of peptide by Lb after 4 min” value was “more than 80%”. Moreover, the “cleavage of peptide by Lb after 8 min” value (lb proteinase, 8 min, 100 µM, pH 8) is given as “about 90%”.
